ChEMBL document CHEMBL3351488, “Design, synthesis and biological evaluation of novel arylpiperazine derivatives on human prostate cancer cell lines” (Bioorg Med Chem Lett, 2015)

Assays:
DU-145 = test: Cytotoxicity against human DU145 cells assessed as inhibition of cell viability after 24 hrs by CCK-8 assay; type: functional, cell-based; settings: DU-145, 24 h
LNCaP = test: Cytotoxicity against human LNCAP cells assessed as inhibition of cell viability after 24 hrs by CCK-8 assay; type: functional, cell-based
[1] = Cytotoxicity against human PC3 cells assessed as inhibition of cell viability after 24 hrs by CCK-8 assay; type: functional, cell-based; settings: PC-3, 24 h
[2] = Cytotoxicity against human RWPE1 cells assessed as inhibition of cell viability after 24 hrs by CCK-8 assay; type: cell-based; settings: RWPE-1, 24 h

Row | Compound | IC50 (DU-145) | IC50 (LNCaP) | IC50 [1] | IC50 [2]
1 | COc1cc(OC)cc(OCc2ccc(CCN3CCN(c4ccccc4C)CC3)cc2)c1 | 19.3 µM | 35.8 µM | 30.2 µM | 35.6 µM
2 | COc1cc(OC)cc(OCc2ccc(CCN3CCN(c4ccccc4)CC3)cc2)c1 | 25 µM | > 50 µM | 31.2 µM | > 50 µM
3 | COc1cc(OC)cc(OCc2ccc(CCN3CCN(c4ccccn4)CC3)cc2)c1 | 16.8 µM | 42.3 µM | 25.6 µM | > 50 µM
4 | COc1cc(OC)cc(OCc2ccc(CCN3CCN(Cc4ccccc4)CC3)cc2)c1 | 5.83 µM | 6.07 µM | 6.79 µM | > 50 µM
5 | COc1cc(OC)cc(OCc2ccc(CCN3CCN(c4ccc(C)cc4)CC3)cc2)c1 | 24.1 µM | 35.2 µM | 48.2 µM | > 50 µM
6 | COc1cc(OC)cc(OCc2ccc(CCN3CCN(c4cccc(C)c4)CC3)cc2)c1 | 28.6 µM | 2.35 µM | 30.6 µM | > 50 µM
7 | COc1cc(OC)cc(OCc2ccc(CCN3CCN(c4cc(C)ccc4C)CC3)cc2)c1 | 27.6 µM | 36.1 µM | 31 µM | > 50 µM
8 | COc1cc(OC)cc(OCc2ccc(CCN3CCN(c4ccccc4OC)CC3)cc2)c1 | 30.5 µM | 26.3 µM | 26.5 µM | 28.8 µM
9 | CCOc1ccccc1N1CCN(CCc2ccc(COc3cc(OC)cc(OC)c3)cc2)CC1 | 27.2 µM | > 50 µM | 27.1 µM | > 50 µM
10 | COc1ccc(N2CCN(CCc3ccc(COc4cc(OC)cc(OC)c4)cc3)CC2)cc1 | 19.2 µM | > 50 µM | 32.9 µM | > 50 µM
11 | COc1cc(OC)cc(OCc2ccc(CCN3CCN(c4cccc(OC)c4)CC3)cc2)c1 | 16.9 µM | 20 µM | 25.3 µM | 39.9 µM
12 | COc1cc(OC)cc(OCc2ccc(CCN3CCN(c4cc(Cl)ccc4OC)CC3)cc2)c1 | 26.7 µM | 39.8 µM | 27.1 µM | > 50 µM
13 | COc1cc(OC)cc(OCc2ccc(CCN3CCN(c4ccccc4F)CC3)cc2)c1 | 25.4 µM | 7.25 µM | 25.3 µM | 35.4 µM
14 | COc1cc(OC)cc(OCc2ccc(CCN3CCN(c4ccc(F)cc4)CC3)cc2)c1 | 28.2 µM | 35 µM | 28.8 µM | > 50 µM
15 | COc1cc(OC)cc(OCc2ccc(CCN3CCN(c4ccc(F)cc4F)CC3)cc2)c1 | 24.2 µM | > 50 µM | 35.4 µM | > 50 µM
16 | COc1cc(OC)cc(OCc2ccc(CCN3CCN(c4ccccc4Cl)CC3)cc2)c1 | 23.2 µM | 32.5 µM | 25.2 µM | > 50 µM
17 | COc1cc(OC)cc(OCc2ccc(CCN3CCN(c4ccc(Cl)cc4)CC3)cc2)c1 | 12.7 µM | > 50 µM | 18.9 µM | > 50 µM
18 | COc1cc(OC)cc(OCc2ccc(CCN3CCN(c4cccc(Cl)c4)CC3)cc2)c1 | 27.1 µM | 36.6 µM | 30.9 µM | > 50 µM
19 | COc1cc(OC)cc(OCc2ccc(CCN3CCN(c4cccc(Cl)c4Cl)CC3)cc2)c1 | 30.2 µM | > 50 µM | 18.4 µM | 36.6 µM
20 | COc1cc(OC)cc(OCc2ccc(CCN3CCN(c4cc(Cl)ccc4C)CC3)cc2)c1 | 28 µM | 2.73 µM | 32.2 µM | 36.5 µM
21 | COc1cc(OC)cc(OCc2ccc(CCN3CCN(c4ccc(Br)cc4)CC3)cc2)c1 | 29.5 µM | > 50 µM | 25.6 µM | > 50 µM
22 | COc1cc(OC)cc(OCc2ccc(CCN3CCN(c4ccccc4C(F)(F)F)CC3)cc2)c1 | 39.2 µM | > 50 µM | 40.3 µM | > 50 µM
23 | COc1cc(OC)cc(OCc2ccc(CCN3CCN(c4ccc(C(F)(F)F)cc4)CC3)cc2)c1 | 28.5 µM | > 50 µM | 23.8 µM | > 50 µM
24 | COc1cc(OC)cc(OCc2ccc(CCN3CCN(c4ccc(C#N)cc4)CC3)cc2)c1 | 46.3 µM | > 50 µM | 27.6 µM | 45.8 µM
25 | COc1cc(OC)cc(OCc2ccc(CCN3CCN(c4ccccc4S(C)(=O)=O)CC3)cc2)c1 | 7.68 µM | 0.97 µM | 9.42 µM | > 50 µM
26 | COc1ccccc1N1CCN(CC(O)COc2cccc3ccccc23)CC1 (centres undefined) [NAFTOPIDIL] | 34.6 µM | 22.4 µM | 42.1 µM | > 50 µM
